Measurements from patent US8633206B2, “Pyrrolo[2,3-D]pyrimidine compounds” (Pfizer Inc., priority 2009, dated 2014).

Columns and labels:
Type in all cases: biochemical
JAK3 = JAK3 (Homo sapiens (Human), UniProt P52333); experiment: JAK enzymatic assay (peptide mobility shift), JAK3; settings: recombinant JAK3 1 nM, JAKtide peptide, 90 minutes
JAK2 = JAK2 (Homo sapiens (Human), UniProt O60674); experiment: JAK enzymatic assay (peptide mobility shift), JAK2; settings: recombinant JAK2 2 nM, JAKtide peptide, 150 minutes
JAK1 = JAK1 (Homo sapiens (Human), UniProt P23458); experiment: JAK enzymatic assay (peptide mobility shift), JAK1; settings: recombinant JAK1 20 nM, IRS-1 peptide, 240 minutes
Sequence of JAK1 (P23458 whole entry): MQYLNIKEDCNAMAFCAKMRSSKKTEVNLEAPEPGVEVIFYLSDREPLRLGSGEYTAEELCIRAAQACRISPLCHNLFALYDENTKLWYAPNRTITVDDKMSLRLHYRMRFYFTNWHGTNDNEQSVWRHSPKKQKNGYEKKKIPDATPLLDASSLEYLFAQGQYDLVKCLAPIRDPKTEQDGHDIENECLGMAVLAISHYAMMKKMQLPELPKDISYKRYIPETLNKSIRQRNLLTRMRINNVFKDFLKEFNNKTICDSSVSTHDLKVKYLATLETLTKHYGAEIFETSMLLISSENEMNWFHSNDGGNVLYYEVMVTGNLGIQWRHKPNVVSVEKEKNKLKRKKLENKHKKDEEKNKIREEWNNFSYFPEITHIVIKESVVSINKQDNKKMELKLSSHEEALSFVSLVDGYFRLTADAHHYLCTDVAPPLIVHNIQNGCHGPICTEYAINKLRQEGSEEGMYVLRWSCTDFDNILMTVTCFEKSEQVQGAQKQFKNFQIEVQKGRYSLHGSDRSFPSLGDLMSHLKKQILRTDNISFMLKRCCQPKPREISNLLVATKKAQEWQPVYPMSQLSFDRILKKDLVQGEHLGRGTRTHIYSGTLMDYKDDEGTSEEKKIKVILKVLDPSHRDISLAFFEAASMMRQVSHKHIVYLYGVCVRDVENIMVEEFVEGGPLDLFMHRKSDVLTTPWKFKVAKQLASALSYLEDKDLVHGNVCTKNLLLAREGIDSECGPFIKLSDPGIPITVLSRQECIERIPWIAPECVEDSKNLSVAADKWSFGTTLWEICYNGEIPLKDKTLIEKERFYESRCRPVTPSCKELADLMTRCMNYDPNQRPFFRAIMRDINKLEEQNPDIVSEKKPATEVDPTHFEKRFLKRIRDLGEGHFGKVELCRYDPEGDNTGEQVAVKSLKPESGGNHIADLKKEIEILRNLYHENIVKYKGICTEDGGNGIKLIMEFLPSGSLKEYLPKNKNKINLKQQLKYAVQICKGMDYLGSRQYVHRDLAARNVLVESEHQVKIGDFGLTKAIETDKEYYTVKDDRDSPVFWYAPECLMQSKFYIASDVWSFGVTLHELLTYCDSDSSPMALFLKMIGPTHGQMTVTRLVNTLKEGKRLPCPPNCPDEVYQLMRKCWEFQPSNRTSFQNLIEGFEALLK

Sequence of JAK3 (P52333 781-1124): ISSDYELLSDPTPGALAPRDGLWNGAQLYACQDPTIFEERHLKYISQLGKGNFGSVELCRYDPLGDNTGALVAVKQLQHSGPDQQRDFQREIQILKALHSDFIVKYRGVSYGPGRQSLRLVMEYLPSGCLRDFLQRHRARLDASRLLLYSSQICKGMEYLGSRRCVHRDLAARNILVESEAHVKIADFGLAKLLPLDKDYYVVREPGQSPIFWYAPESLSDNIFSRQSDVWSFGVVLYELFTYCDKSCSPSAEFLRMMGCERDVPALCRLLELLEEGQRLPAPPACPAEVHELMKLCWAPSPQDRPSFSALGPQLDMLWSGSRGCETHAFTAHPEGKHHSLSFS
Sequence of JAK2 (O60674 808-1132): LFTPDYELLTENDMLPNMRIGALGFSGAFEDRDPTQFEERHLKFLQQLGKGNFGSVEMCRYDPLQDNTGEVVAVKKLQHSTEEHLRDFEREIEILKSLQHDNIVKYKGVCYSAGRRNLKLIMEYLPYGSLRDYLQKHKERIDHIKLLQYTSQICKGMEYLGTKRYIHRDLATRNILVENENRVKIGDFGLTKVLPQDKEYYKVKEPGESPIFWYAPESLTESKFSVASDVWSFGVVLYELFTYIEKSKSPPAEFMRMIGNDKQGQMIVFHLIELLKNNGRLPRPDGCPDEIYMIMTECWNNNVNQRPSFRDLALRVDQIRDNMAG

SMILES | IC50 (JAK3) [nM] | IC50 (JAK2) [nM] | IC50 (JAK1) [nM]
CN(c1ncnc2[nH]ccc12)[C@H]1CC[C@H](CS(=O)(=O)N2C[C@](C)(CO)[C@](C)(CO)C2)CC1 [Example 79, {(3R,4S)-3,4-dimethyl-1-[({trans-4-[methyl(7H-pyrrolo[2,3-d]pyrimidin-4-yl)amino]cyclohexyl}methyl)-sulfonyl]pyrrolidine-3,4-diyl}dimethanol] | 580 | 55.6 | 14.4
CN(c1ncnc2[nH]ccc12)[C@H]1CC[C@H](CS(=O)(=O)N2CC[C@H](Oc3ccccc3C#N)C2)CC1 [Example 88, 2-({(3S)-1-[({trans-4-[methyl(7H-pyrrolo[2,3-d]-pyrimidin-4-yl)amino]-cyclohexyl}methyl)sulfonyl]pyrrolidin-3-yl}oxy)-benzonitrile] | 413 | 23.4 | 6.73
C[C@H]1CN(S(=O)(=O)C[C@H]2CC[C@H](N(C)c3ncnc4[nH]ccc34)CC2)C[C@@H]1CO [Example 135, {(3r,4r)-4-methyl-1-[({trans-4-[methyl(7H-pyrrolo[2,3-d]pyrimidin-4-yl)amino]cyclohexyl}methyl)sulfonyl]pyrrolidin-3-yl}methanol] | 0.198 | 0.0165 | 0.00199
Cc1ccc(N2CCN(S(=O)(=O)C[C@H]3CC[C@H](N(C)c4ncnc5[nH]ccc45)CC3)CC2)nc1 [Example 118, N-methyl-N-[trans-4-({[4-(5-methylpyridin-2-yl)piperazin-1-yl]sulfonyl}-methyl)cyclohexyl]-7H-pyrrolo[2,3-d]pyrimidin-4-amine] | 255 | 50.8 | 16.7
COC1CCN(S(=O)(=O)C[C@H]2CC[C@H](N(C)c3ncnc4[nH]ccc34)CC2)CC1 [Example 41, N-(trans-4-{[(4-methoxy-piperidin-1-yl)-sulfonyl]-methyl}cyclohexyl)-N-methyl-7H-pyrrolo[2,3-d]-pyrimidin-4-amine] | 634 | 107 | 22.1
CC(=O)NCC1CCCN(S(=O)(=O)C[C@H]2CC[C@H](N(C)c3ncnc4[nH]ccc34)CC2)C1 (stereo partly drawn) [Example 20, N-({1-[({trans-4-[methyl-(7H-pyrrolo[2,3-d]-pyrimidin-4-yl)amino]-cyclohexyl}methyl)sulfonyl]-piperidin-3-yl}methyl)-acetamide] | 190 | 15.2 | 1.66
CC[C@@]1(CO)CCN(S(=O)(=O)C[C@H]2CC[C@H](N(C)c3ncnc4[nH]ccc34)CC2)C1 [Example 74, {3-ethyl-1-[({trans-4-[methyl(7H-pyrrolo[2,3-d]-pyrimidin-4-yl)amino]-cyclohexyl}methyl)sulfonyl]-pyrrolidin-3-yl}methanol] | 495 | 55.2 | 17.3
COC[C@@H]1CCN(S(=O)(=O)C[C@H]2CC[C@H](N(C)c3ncnc4[nH]ccc34)CC2)C1 [Example 73, N-[trans-4-({[3-(methoxy-methyl)pyrrolidin-1-yl]-sulfonyl}methyl)-cyclohexyl]-N-methyl-7H-pyrrolo[2,3-d]pyrimidin-4-amine] | 138 | 22.5 | 1.69
CN(c1ncnc2[nH]ccc12)[C@H]1CC[C@H](CS(=O)(=O)N2CC[C@H](S(=O)(=O)Cc3ccccc3)C2)CC1 [Example 82, N-[trans-4-({[3-(benzyl-sulfonyl)pyrrolidin-1-yl]sulfonyl}-methyl)-cyclohexyl]-N-methyl-7H-pyrrolo[2,3-d]pyrimidin-4-amine] | 146 | 17.4 | 7.34
CC(=O)C1CCCN(S(=O)(=O)C[C@H]2CC[C@H](N(C)c3ncnc4[nH]ccc34)CC2)C1 (stereo partly drawn) [Example 5, 1-{1-[({trans-4-[methyl(7H-pyrrolo[2,3-d]pyrimidin-4-yl)amino]-cyclohexyl}methyl)sulfonyl]-piperidin-3-yl}ethanone] | 339 | 21.9 | 7.07
CN(c1ncnc2[nH]ccc12)[C@H]1CC[C@H](CS(=O)(=O)N2CCC[C@H](CS(N)(=O)=O)C2)CC1 [Example 66, 1-{1-[({trans-4-[methyl(7H-pyrrolo[2,3-d]pyrimidin-4-yl)amino]cyclohexyl}-methyl)sulfonyl]piperidin-3-yl}-methanesulfonamide] | 128 | 22 | 3.1
Cc1ccc(CC2CCN(S(=O)(=O)C[C@H]3CC[C@H](N(C)c4ncnc5[nH]ccc45)CC3)CC2)nn1 [Example 48, N-methyl-N-{trans-4-[({4-[(6-methylpyridazin-3-yl)methyl]piperidin-1-yl}sulfonyl)methyl]cyclo-hexyl}-7H-pyrrolo[2,3-d]-pyrimidin-4-amine] | 753 | 84.9 | 22.7
CN(c1ncnc2[nH]ccc12)[C@H]1CC[C@H](CS(=O)(=O)N2CCC(COCC3CC3)CC2)CC1 [Example 56, N-{trans-4-[({4-[(cyclopropyl-methoxy)-methyl]piperidin-1-yl}-sulfonyl)-methyl]-cyclohexyl}-N-methyl-7H-pyrrolo[2,3-d]-pyrimidin-4-amine] | 170 | 59.8 | 4.07
CN(c1ncnc2[nH]ccc12)[C@H]1CC[C@H](CS(=O)(=O)N2C[C@@H](O)[C@H](O)C2)CC1 [Example 72, (3R,4R)-1-[({trans-4-[methyl(7H-pyrrolo[2,3-d]-pyrimidin-4-yl)amino]-cyclohexyl}methyl)sulfonyl] pyrrolidine-3,4-diol] | 173 | 39.6 | 5.92
CN(c1ncnc2[nH]ccc12)[C@H]1CC[C@H](CS(=O)(=O)N2CC(S(=O)(=O)c3ccccc3)C2)CC1 [Example 114, N-methyl-N-[trans-4-({[3-(phenylsulfonyl)azetidin-l-yl]sulfonyl}methyl)cyclo-hexyl]-7H-pyrrolo[2,3-d]-pyrimidin-4-amine] | 63 | 9.2 | 3.05
CN(c1ncnc2[nH]ccc12)[C@H]1CC[C@H](CS(=O)(=O)N2C[C@@H](O)[C@@H](O)C2)CC1 [Example 71, (3R,4S)-1-[({trans-4-[methyl(7H-pyrrolo[2,3-d]-pyrimidin-4-yl)amino]-cyclohexyl}methyl)sulfonyl] pyrrolidine-3,4-diol] | 80.8 | 8.54 | 2.52
CCc1ccc(COC[C@H]2CCN(S(=O)(=O)C[C@H]3CC[C@H](N(C)c4ncnc5[nH]ccc45)CC3)C2)nc1 [Example 94, N-(trans-4-{[(3-{[(5-ethylpyridin-2-yl)methoxy]-methyl}pyrrolidin-1-yl)-sulfonyl]methyl}-cyclohexyl)-N-methyl-7H-pyrrolo[2,3-d]pyrimidin-4-amine] | 678 | 63.6 | 17.5
COC(=O)NC1CN(S(=O)(=O)C[C@H]2CC[C@H](N(C)c3ncnc4[nH]ccc34)CC2)C1 [Example 117, methyl {1-[({trans-4-[methyl(7H-pyrrolo[2,3-d]pyrimidin-4-yl)amino]-cyclohexyl}methyl)sulfonyl]azetidin-3-yl}carbamate] | 382 | 32.4 | 11
CN(c1ncnc2[nH]ccc12)[C@H]1CC[C@H](CS(=O)(=O)N2CC[C@H](S(=O)(=O)CCc3ccccc3)C2)CC1 [Example 83, N-methyl-N-{trans-4-[({3-[(2-phenylethyl)-sulfonyl]pyrrolidin-1-yl}sulfonyl)methyl]cyclo-hexyl}-7H-pyrrolo[2,3-d]pyrimidin-4-amine] | 133 | 16.7 | 4.79
CN(c1ncnc2[nH]ccc12)[C@H]1CC[C@H](CS(=O)(=O)N2CC[C@@](O)(Cn3cccn3)C2)CC1 [Example 90, 1-[({trans-4-[methyl(7H-pyrrolo[2,3-d]pyrimidin-4-yl)amino]cyclohexyl}methyl)-sulfonyl]-3-(1H-pyrazol-1-ylmethyl)pyrrolidin-3-ol] | 82.3 | 9.3 | 1.8
CN(c1ncnc2[nH]ccc12)[C@H]1CC[C@H](CS(=O)(=O)N2CC[C@H](c3ccccc3F)C2)CC1 [Example 93, N-[trans-4-({[3-(2-fluorophenyl)pyrrolidin-1-yl]sulfonyl}methyl)cyclo-hexyl]-N-methyl-7H-pyrrolo[2,3-d]pyrimidin-4-amine] | 286 | 37.4 | 5.5
CN(c1ncnc2[nH]ccc12)[C@H]1CC[C@H](CS(=O)(=O)N2CCC[C@@H](O)C2)CC1 [Example 40, (3R)-1-[({trans-4-[methyl(7H-pyrrolo[2,3-d]pyrimidin-4-yl)amino]-cyclohexyl}methyl)sulfonyl]piperidin-3-ol] | 105 | 8.04 | 1.44
CN(c1ncnc2[nH]ccc12)[C@H]1CC[C@H](CS(=O)(=O)N2CCCC(C(=O)O)C2)CC1 (stereo partly drawn) [Example 16, 1-[({trans-4-[methyl(7H-pyrrolo[2,3-d]pyrimidin-4-yl)amino]cyclohexyl}methyl)-sulfonyl]piperidine-3-carboxylic acid] | 74.3 | 7.71 | 2.13
CN(c1ncnc2[nH]ccc12)[C@H]1CC[C@H](CS(=O)(=O)N2CCCC(F)C2)CC1 (stereo partly drawn) [Example 10, N-(trans-4-{[(3-fluoro-piperidin-1-yl)sulfonyl]-methyl}cyclohexyl)-N-methyl-7H-pyrrolo[2,3-d]-pyrimidin-4-amine] | 234 | 26.2 | 5.3
CN(c1ncnc2[nH]ccc12)[C@H]1CC[C@H](CS(=O)(=O)N2CC[C@H](Cc3ccccc3)C2)CC1 [Example 104, N-(trans-4-{[(3-benzyl-pyrrolidin-1-yl)sulfonyl]-methyl}cyclohexyl)-N-methyl-7H-pyrrolo[2,3-d]-pyrimidin-4-amine] | 721 | 65.4 | 18
